Patent US20170145363A1, “MICROFLUIDIC DUAL-WELL DEVICE FOR HIGHTHROUGHPUT SINGLE-CELL CAPTURE AND CULTURE” (NATIONAL HEALTH RESEARCH INSTITUTES, priority 2015, published 2017)

System: A549 cells
Assay: EGF promoted colony formation assay of A549 single cells in DW device
Type: cell-based, human
Settings: 200 ng mL-1 EGF in DMEM with 10% FBS, 7 days of culture, colonies >15 cells per culture-well, control medium 12.10%
Experimental: In the EGF promoted colony formation assay, 200 μL of A549 cells at a concentration of 2.2-2.5×10^6 cells per mL was injected into the DW device manually and allowed to settle for 2 min, followed by injecting DMEM with 20% FBS and 1% antibiotics into the microchannel immediately to wash off excess cells in the channel at a flow rate of 600 μL min^−1 for 30 s. Subsequently, the inlet and outlet holes were sealed and the device was flipped upside down to obtain a single cell in a culture-well. The device was then placed in a humidified incubator at 37° C. with 5% CO2 as described above. After 1 day of culture, one of the device (for the control experiment) was injected with 300 μL of DMEM containing 10% FBS and 1% antibiotics to replace the original medium. […] Colonies with cell numbers higher than 15 cells in a culture-well were scored as cell colonies.
Due to its high single-cell capture efficiency and large space of culture wells, the DW device represents an attractive tool for in vitro single-cell colony formation assays in which the growth of individual cells is analyzed. […] The portability and transparency of the DW device allowed the cells in the device to be conveniently analyzed with a conventional microscope during cell culture experiments (FIGS. 7A-D). […]

“EGF: epithelial growth factor (EGF, PeproTech, USA) supplied in the culture medium at 200 ng mL-1” showed a colony forming efficiency of 17.56%.
